Source: patent US20140094413A1, “HEPATOCYTE GROWTH FACTOR (HGF) MIMICS AS THERAPEUTIC AGENTS” (WASHINGTON STATE UNIVERSITY, priority 2012, published 2014)
“And” between values parts separate entries of the source, which are not always exact repeats. Identical values can stand only once. Where a SMILES comes first, the peptide text is derived from it. [ ]: non-standard residue; d: D form. The star is where a group is joined. Nle = CCCC[C@H](N)C(=O)O; Hexanoyl = CCCCCC(=O)*; Ahx = NCCCCCC(=O)O

What was measured:
[1] = system: CA1 hippocampal neurons; test: Spinogenesis in organotypic hippocampal slice cultures; format: cell-based, rat
Procedure: (§1) Hippocampi from P4 Sprague Dawley rats were cultured as previously described (Wayman, Impey et al. 2006). Briefly, 400 μm slices were cultured on (Milipore, Billerica, Mass.) for 3 days after which they were biolistically transfected with tomato fluorescent protein (TIT) using a Helios Gen Gun (BioRad, Hercules, Calif.), according to the manufacturer's protocol, to visualize dendritic arbors. Following a 24 hour recovery period slices were stimulated with vehicle (H2O), […] Nle1-AngIV or Dihexa for 2 days. Slices were fixed and mounted. Hippocampal CA1 neuronal processes were imaged and measured as described above.
as §1, with “(TFP)” for “(TIT)”, “Gene” for “Gen”, “with” for “with vehicle (H2O),”

[2] = system: hippocampal neurons; test: Spinogenesis in mRFP-β-actin transfected dissociated hippocampal neurons; format: cell-based, rat; settings: for Spine numbers (spinogenesis) vs vehicle: 1 μM as printed in FIG. 34 legend; for Number of spines per 50 μm dendrite length: 10^−10 M; for Increase in the number of spines vs vehicle: 5 day treatment; for Spine density, dose dependence: 5 day stimulation, wide range of concentrations
Procedure: (§2) Hippocampal neurons (2×10^5 cells per square cm) were cultured from P1 Sprague Dawley rats on plates coated with poly-L-lysine from Sigma (St. Louis, Mo.; molecular weight 300,000). Hippocampal neurons were maintained in Neurobasal A media from Invitrogen (Carlsbad, Calif.) supplemented with B27 from Invitrogen, 0.5 mM L-glutamine, and […] cytosine-D-arabinofuranoside from Sigma added at 2 days in vitro. Hippocampal neurons were then cultured a further 3-7 days, at which time they were either transfected or treated with various pharmacological reagents as described in (Wayman, Davare et al. 2008).
(§3) Neurons were transfected with mRFP-β-actin on day in vitro 6 (DIV6) using LipofectAMINE™ 2000 (Invitrogen) according to the manufacturer's protocol. This protocol yielded the desired 3-5% transfection efficiency thus enabling the visualization of individual neurons. Higher efficiencies obscured the dendritic arbor of individual neurons. Expression of fluorescently tagged actin allowed clear visualization of dendritic spines, as dendritic spines are enriched in actin. […] On DIV 12 the neurons were fixed (4% paraformaldehyde, 3% sucrose, 60 mM PIPES, 25 mM HEPES, 5 mM EGTA, 1 mM MgCl2, pH 7.4) for 20 min at room temperature and mounted. Slides were dried for at least 20 hours at 4° C. and fluorescent images were obtained with Slidebook 4.2 Digital Microscopy Software driving an Olympus IX81 inverted confocal microscope with a 60× oil immersion lens, NA 1.4 and resolution 0.280 μm Dendritic spine density was measured on primary and secondary dendrites at a distance of at least 150 μm from the soma. Five 50 μm long segments of dendrite from at least 10 neurons per data point were analyzed for each data point reported. Each experiment was repeated at least three times using independent culture preparations. Dendrite length was determined using the National Institutes of Health's Image J 1.41o program (NIH, Bethesda, Md.) and the neurite tracing program Neuron J (Meijering, Jacob et al. 2004) Spines were manually counted.
as §2, with “centimeter)” for “cm)”, “P1-2” for “P1”, “the text or figure legends.” for “(Wayman, Davare et al. 2008).”
as §3, with “DIV12” for “DIV 12”, “Dendrite length was determined using the National Institutes of Health's Image J 1.41o program (NIH, Bethesda, Md.) and the neurite tracing program Neuron J (Meijering, Jacob et al. 2004) Spines were manually counted.” left out

[3] = 10^−12 M, acute 30 minute application on DIV 12

Compound | Spines per 50 μm dendrite length, CA1 neurons ([1]; 10^−12 M, 2 days) | Concentration active in stimulating synaptogenesis [2] | Spine numbers (spinogenesis) vs vehicle [2] | Number of spines per 50 μm dendrite length ([2]; 5 days) | Average spine head width ([2]; 10^−12 M) | Increase in the number of spines vs vehicle ([2]; 10^−12 M) | Mean spine numbers per 50 μm dendrite length [2, 3] | Spine density, dose dependence [2] | Spines per 50 μm dendrite length, CA1 neurons ([1]; HGF 10 ng/ml, 48 hours) | Mean spine numbers per 50 μm dendrite length ([2]; HGF 2.5 ng/ml (sub-threshold), 5 days) | Mean spine numbers per 50 μm dendrite length ([2]; HGF 5 ng/ml, 5 days) | Mean spine numbers per 50 μm dendrite length ([2]; HGF 10 ng/ml, 5 days) | Mean spine numbers per 50 μm dendrite length ([2]; HGF 20 ng/ml, 5 days)
CCCCCC(=O)N[C@@H](Cc1ccc(O)cc1)C(=O)N[C@H](C(=O)NCCCCCC(N)=O)[C@@H](C)CC [Dihexa, N-hexanoic-Tyr-Ile-(6)-aminohexanoic amide] (Hexanoyl-Tyr-Ile-[Ahx]-NH2) | 11 spines per 50 μm dendrite length and 15.0 spines per 50 μm dendrite length | 10^−12 M | dramatic increase in spine numbers | 11 spines per 50 μm dendrite length | 0.80 μm | ~3 fold | 23.9 spines per 50 μm dendrite length | dose-dependently stimulate spinogenesis | – | – | – | – | –
CCCC[C@H](N)C(=O)N[C@@H](Cc1ccc(O)cc1)C(=O)N[C@H](C(=O)N[C@@H](Cc1c[nH]cn1)C(=O)N1CCC[C@H]1C(=O)N[C@@H](Cc1ccccc1)C(=O)O)[C@@H](C)CC [Nle1-AngIV, reference compound] (H-[Nle]YIHPF-OH; N-terminus and C-terminus assumed) | 11 spines per 50 μm dendrite length | – | dramatic increase in spine numbers | 22 spines per 50 μm dendrite length | 0.87 μm | greater than 2 fold | 2.6 spines per 50 μm dendrite length | dose-dependently stimulate spinogenesis | – | – | – | – | –
HGF: Hepatocyte growth factor, recombinant, purchased from R&D Systems | – | – | – | – | – | – | – | – | 18.5 spines per 50 μm dendrite length | 18.6 spines per 50 μm dendrite leng and 16.5 spines per 50 μm dendrite leng | 24.7 spines per 50 μm dendrite leng | 27.5 spines per 50 μm dendrite leng and 29.3 spines per 50 μm dendrite leng | 27.0 spines per 50 μm dendrite leng
